Patent US7517894B2, “VEGFR-2 and VEGFR-3 inhibitory anthranilamide pyridines” (Bayer Schering Pharma AG, priority 2003, dated 2009)

Columns and labels:
VEGFR II (KDR) = VEGFR II (KDR) (Homo sapiens, UniProt P35968); assay: Inhibition of the KDR kinase activity (33P-ATP, poly-(Glu4Tyr) phosphocellulose filter assay); type: biochemical; conditions: 10 minutes at room temperature; phosphate incorporation into poly-(Glu4Tyr)
Experimental: • Stock solution A: 3 mmol of ATP in water, pH 7.0 (−70° C.) • Stock solution B: g-33P-ATP 1 mCi/100 μl • Stock solution C: poly-(Glu4Tyr) 10 mg/ml in water Solution for Dilutions • Substrate solvent: 10 mmol of DTT, 10 mmol of manganese chloride, 100 mmol of magnesium chloride • Enzyme solution: 120 mmol of tris/HCl, pH 7.5, 10 μM of sodium vanadium oxide Sample Application 1
In a microtiter plate (without protein binding) that tapers to a point, 10 μl of substrate mix (10 μl of volume of ATP stock solution A+25 μCi of g-33P-ATP (about 2.5 μl of stock solution B)+30 μl of poly-(Glu4Tyr) stock solution C+1.21 ml of substrate solvent), 10 μl of inhibitor solution (substances corresponding to the dilutions, 3% DMSO in substrate solvent as a control) and 10 μl of enzyme solution (11.25 μg of enzyme stock solution (KDR or FLT-1 kinase) are added at 4° C. in 1.25 ml of enzyme solution (dilute). It is thoroughly mixed and incubated for 10 minutes at room temperature. Then, 10 μl of stop solution (250 mmol of EDTA, pH 7.0) is added, mixed, and 10 μl of the solution is transferred to a P 81 phosphocellulose filter. Then, it is washed several times in 0.1 M phosphoric acid. The filter paper is dried, coated with Meltilex and measured in a microbeta counter.
The IC50 values are determined from the inhibitor concentration, which is necessary to inhibit the phosphate incorporation to 50% of the uninhibited incorporation after removal of the blank reading (EDTA-stopped reaction).

[1] = molecular target: T1, human cytochrome P 450 isoenzyme (3A4) (Homo sapiens, UniProt P08684); assay: Cytochrome P450 inhibition (Crespi et al.); type: in vitro ADME; conditions: baculovirus/insect cell-expressed human isoenzyme 3A4
T1 construct: host or cells: baculovirus/insect cells
T1 sequence (P08684 whole entry): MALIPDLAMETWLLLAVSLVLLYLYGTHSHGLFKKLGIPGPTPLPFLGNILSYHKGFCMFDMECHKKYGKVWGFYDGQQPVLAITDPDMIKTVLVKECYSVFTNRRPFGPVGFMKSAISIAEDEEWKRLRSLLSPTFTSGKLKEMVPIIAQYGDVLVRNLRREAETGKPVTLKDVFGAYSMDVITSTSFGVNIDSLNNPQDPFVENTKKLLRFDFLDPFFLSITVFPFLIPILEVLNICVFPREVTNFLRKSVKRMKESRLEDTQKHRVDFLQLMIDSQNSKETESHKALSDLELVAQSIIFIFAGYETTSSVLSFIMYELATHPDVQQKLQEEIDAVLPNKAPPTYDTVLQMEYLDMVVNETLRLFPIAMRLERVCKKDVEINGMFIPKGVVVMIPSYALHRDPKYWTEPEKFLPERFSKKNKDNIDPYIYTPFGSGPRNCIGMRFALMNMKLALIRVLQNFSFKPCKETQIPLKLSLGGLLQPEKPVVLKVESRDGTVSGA
Experimental: The cytochrome P450 inhibition was performed according to the publication of Crespi et al. (Anal. Biochem., 248, 188-190 (1997)) with use of baculovirus/insect cell-expressed, human cytochrome P 450 isoenzyme (3A4).

VEGFR II (KDR), sequence (P35968 20-1356): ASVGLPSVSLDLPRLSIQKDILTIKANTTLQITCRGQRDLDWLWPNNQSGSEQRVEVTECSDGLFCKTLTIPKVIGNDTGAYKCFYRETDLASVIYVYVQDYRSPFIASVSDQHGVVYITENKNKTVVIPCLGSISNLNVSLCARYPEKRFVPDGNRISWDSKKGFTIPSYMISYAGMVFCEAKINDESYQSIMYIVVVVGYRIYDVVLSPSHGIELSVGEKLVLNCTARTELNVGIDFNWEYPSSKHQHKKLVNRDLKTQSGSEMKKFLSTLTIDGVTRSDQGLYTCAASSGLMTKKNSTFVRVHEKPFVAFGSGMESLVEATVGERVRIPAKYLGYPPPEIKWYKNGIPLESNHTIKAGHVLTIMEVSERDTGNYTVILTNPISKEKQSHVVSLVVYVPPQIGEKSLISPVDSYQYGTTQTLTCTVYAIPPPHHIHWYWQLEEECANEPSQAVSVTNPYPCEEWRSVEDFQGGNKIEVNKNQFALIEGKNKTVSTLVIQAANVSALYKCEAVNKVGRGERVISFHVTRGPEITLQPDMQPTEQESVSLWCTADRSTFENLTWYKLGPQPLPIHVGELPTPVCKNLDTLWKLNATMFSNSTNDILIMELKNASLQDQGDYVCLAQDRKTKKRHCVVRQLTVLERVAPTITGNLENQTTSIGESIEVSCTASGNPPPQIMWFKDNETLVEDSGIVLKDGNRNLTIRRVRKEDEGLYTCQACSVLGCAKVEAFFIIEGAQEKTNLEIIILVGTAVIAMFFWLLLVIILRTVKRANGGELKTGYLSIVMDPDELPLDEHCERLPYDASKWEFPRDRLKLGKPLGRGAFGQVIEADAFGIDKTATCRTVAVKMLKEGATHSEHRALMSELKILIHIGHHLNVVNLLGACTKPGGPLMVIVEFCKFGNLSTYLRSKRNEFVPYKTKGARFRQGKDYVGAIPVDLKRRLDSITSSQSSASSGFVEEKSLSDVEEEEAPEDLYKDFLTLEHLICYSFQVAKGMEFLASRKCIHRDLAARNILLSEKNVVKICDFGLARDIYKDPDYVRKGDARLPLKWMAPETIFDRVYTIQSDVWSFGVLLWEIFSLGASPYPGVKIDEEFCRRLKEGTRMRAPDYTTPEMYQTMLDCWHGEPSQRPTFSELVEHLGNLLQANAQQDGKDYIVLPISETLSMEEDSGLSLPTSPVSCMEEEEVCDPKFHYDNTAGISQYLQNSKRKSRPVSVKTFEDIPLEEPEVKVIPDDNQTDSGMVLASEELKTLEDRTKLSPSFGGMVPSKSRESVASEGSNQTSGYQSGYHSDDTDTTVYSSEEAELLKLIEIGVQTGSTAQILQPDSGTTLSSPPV

IC50 (VEGFR II (KDR)) [nM] | IC50 [1] [nM] | melting point [°C] | Compound
52 | > 30000 |  | O=C(Nc1cc2ccccc2cn1)c1ccccc1NCc1ccnc(N2CCOCC2)c1 [Example 1.14]
 |  | 202 | Nc1cc(CNc2ccccc2C(=O)Nc2cc3ccccc3cn2)ccn1 [Example 2.1, 2-[(2-Amino-pyridin-4-ylmethyl)-amino]-N-isoquinolin-3-yl-benzamide]
 |  | 200 | Nc1cc(CNc2ccccc2C(=O)Nc2ccc3[nH]ncc3c2)ccn1 [Example 2.2, 2-[(2-Amino-pyridin-4-ylmethyl)-amino]-N-(1H-indazol-5-yl)-benzamide]
12 | 14000 |  | CNC(=O)Nc1cc(CNc2ccccc2C(=O)Nc2cc3ccccc3cn2)ccn1 [Example 3.24]
10 | 5500 |  | CN(C)C(=O)Nc1cc(CNc2ccccc2C(=O)Nc2cc3ccccc3cn2)ccn1 [Example 3.30, 2-{[2-(3,3-Dimethyl-ureido)-pyridin-4-ylmethyl]-amino}-N-(3-isoquinolinyl)-benzamide]
24 | 10000 |  | CCOC(=O)Nc1cc(CNc2ccccc2C(=O)Nc2ccc3cn[nH]c3c2)ccn1 [Example 6.22]
65 | 11000 | 71 | CC(=O)N(C)c1cc(CNc2ccccc2C(=O)Nc2cc3ccccc3cn2)ccn1 [Example 6.31, 2-{[2-(Acetyl-methyl-amino)-pyridin-4-ylmethyl]-amino}-N-isoquinolin-3-yl-benzamide]
 |  | 201.9 | O=C(Nc1cccc(C(F)(F)F)c1)c1ccccc1NCc1ccnc(N2C(=O)COCC2=O)c1 [Example 9.1, 2-{[2-(3,5-Dioxo-morpholin-4-yl)-pyridin-4-ylmethyl]-amino}-N-(3-trifluoromethyl-phenyl)-benzamide]
